Holding throughout (type): functional, cell-based
For one experiment, the system named is MCF7. The experiment can be described thus: Antiproliferative activity against human MCF7 cells incubated for 24 hrs by MTT assay. The settings on record: MCF7, 24 h.
The test system of another experiment is HepG2. The experiment can be described thus: Antiproliferative activity against human HepG2 cells incubated for 24 hrs by MTT assay. The settings on record: HepG2, 24 h. For orientation: Tetrazolium dyes change colour on reduction, which living cells bring about.
The test system of another experiment is A549. The experiment can be described thus: Antiproliferative activity against human A549 cells incubated for 24 hrs by MTT assay. To be noted: A549, 24 h.
For a further experiment, the system named is SK-N-SH. The experiment can be described thus: Antiproliferative activity against human SK-N-SH cells incubated for 24 hrs by MTT assay.
In another experiment the test system is HeLa. The experiment can be described thus: Antiproliferative activity against human HeLa cells incubated for 24 hrs by MTT assay.

For the compound `Cc1ccc(-c2nc3ccccc3c3c2c(-c2ccc(Br)cc2)nn3-c2ccccc2)cc1`, the IC50 (usually the concentration needed to halve the response being measured) amounted to 19.6 µM in the experiment on MCF7; 26 µM with HepG2; 2.43 µM in the experiment with A549; 4.54 µM with SK-N-SH; 8.3 µM in the experiment with HeLa.

Take `Clc1ccc(-c2nc3ccccc3c3c2c(-c2ccc(Br)cc2)nn3-c2ccccc2)cc1`: the IC50 with MCF7 was 38 µM; in the experiment on HepG2, 20.7 µM; in the experiment with A549 it was 8.79 µM; with SK-N-SH, 5.47 µM; with HeLa it was 9.52 µM.

Take `COc1ccccc1-c1nc2ccccc2c2c1c(-c1ccc(Br)cc1)nn2-c1ccccc1`: the IC50 in the experiment on MCF7 worked out at 123 µM; in the experiment on HepG2, 30.3 µM; in the experiment on A549 it was 8.45 µM; in the experiment with SK-N-SH, 5.54 µM; in the experiment on HeLa, 5.29 µM.

Turning to `Clc1ccc(-c2nc3ccccc3c3c2c(-c2ccc(Br)cc2)nn3-c2ccccc2)c(Cl)c1`, the IC50 in the experiment on MCF7 was found to be 6.01 µM; in the experiment on HepG2 it was 180 µM; in the experiment on A549 it was 5.96 µM; in the experiment on SK-N-SH it was 7.13 µM; in the experiment with HeLa it was 81.2 µM.

For `Clc1ccc(-c2nc3ccccc3c3c2c(-c2ccccc2)nn3-c2ccccc2)cc1`, the IC50 came out at 11.1 µM in the experiment on MCF7; 10.8 µM in the experiment with HepG2; 8.09 µM in the experiment with A549; 6.65 µM in the experiment on SK-N-SH; 5.62 µM in the experiment on HeLa.

With `COc1ccc(-c2nc3ccccc3c3c2c(-c2ccc(Br)cc2)nn3-c2ccccc2)c(OC)c1`, the IC50 in the experiment on MCF7 turned out to be 10.4 µM; in the experiment on HepG2 it was 42.8 µM; with A549, 41.1 µM; in the experiment with SK-N-SH, 3.76 µM; with HeLa, 12 µM.

As to `Brc1ccc(-c2nn(-c3ccccc3)c3c2c(-c2cccs2)nc2ccccc23)cc1`, the IC50 with MCF7 amounted to 42.4 µM; in the experiment on HepG2 it was 35 µM; in the experiment on A549 it was 9.34 µM; in the experiment on SK-N-SH it was 5.24 µM; in the experiment with HeLa it was 23.4 µM.

As for `COc1cccc2c1C(=O)c1c(O)c3c(c(O)c1C2=O)C[C@@](O)(C(=O)CO)C[C@@H]3O[C@H]1C[C@H](N)[C@H](O)[C@H](C)O1` [DOXORUBICIN], the IC50 with HepG2 was determined as 6.11 µM; in the experiment on A549, 0.223 µM; in the experiment on SK-N-SH it was 2.42 µM.

With `Brc1ccc(-c2nn(-c3ccccc3)c3c2c(-c2cccc4ccccc24)nc2ccccc23)cc1`, the IC50 in the experiment on MCF7 was determined as 18.4 µM; in the experiment with HepG2, 24.4 µM; in the experiment with A549, 8.1 µM; in the experiment on SK-N-SH it was 5.54 µM; in the experiment on HeLa, 11.8 µM.

Take `Brc1ccc(-c2nn(-c3ccccc3)c3c2c(-c2ccco2)nc2ccccc23)cc1`: the IC50 amounted to 14 µM with MCF7; 30.4 µM in the experiment with HepG2; 8.81 µM in the experiment on A549; 3.83 µM with SK-N-SH; 4.89 µM in the experiment with HeLa.

In the case of `COc1ccccc1-c1nc2ccccc2c2c1c(-c1ccccc1)nn2-c1ccccc1`, the IC50 in the experiment on MCF7 stood at 15.4 µM; with HepG2, 18.8 µM; in the experiment on A549, 25.8 µM; with SK-N-SH, 5.39 µM; in the experiment with HeLa, 7.81 µM.

As for `c1ccc(-c2nc3ccccc3c3c2c(-c2ccccc2)nn3-c2ccccc2)cc1`, the IC50 with MCF7 was 32.6 µM; with HepG2 it was 18.6 µM; in the experiment on A549, 16.5 µM; with SK-N-SH it was 5.24 µM; with HeLa, 24.6 µM.

With `Brc1ccc(-c2nn(-c3ccccc3)c3c2c(-c2ccccc2)nc2ccccc23)cc1`, the IC50 with MCF7 was determined as 12.3 µM; in the experiment with HepG2, 14.6 µM; with A549, 4.92 µM; with SK-N-SH, 5.99 µM; in the experiment on HeLa it was 14.3 µM.

For the compound `Clc1ccc(-c2nc3ccccc3c3c2c(-c2ccccc2)nn3-c2ccccc2)c(Cl)c1`, the IC50 with MCF7 is 77.8 µM; in the experiment on HepG2, 83.9 µM; in the experiment with A549, 8.17 µM; with SK-N-SH it was 11.5 µM; in the experiment on HeLa, 5.24 µM.

With `Cc1ccc(-c2nc3ccccc3c3c2c(-c2ccccc2)nn3-c2ccccc2)cc1`, the IC50 in the experiment on MCF7 was 24.2 µM; with HepG2 it was 32.7 µM; in the experiment with A549 it was 56.8 µM; in the experiment with SK-N-SH it was 5.02 µM; in the experiment on HeLa it was 7.38 µM.

Turning to `O=[N+]([O-])c1cccc(-c2nc3ccccc3c3c2c(-c2ccc(Br)cc2)nn3-c2ccccc2)c1`, the IC50 in the experiment with MCF7 was determined as 20.3 µM; in the experiment on HepG2, 19.3 µM; in the experiment with A549, 15.6 µM; with SK-N-SH, 3.87 µM; in the experiment with HeLa, 6.49 µM.

Source of the values: ChEMBL document CHEMBL4184262, “Iodine mediated pyrazolo-quinoline derivatives as potent anti-proliferative agents” (Bioorg Med Chem Lett, 2018).
